Results: patent US7994172B2, “[1H-pyrazolo[3, 4-D]pyrimidin-4-yl]-piperidine or -piperazine compounds as serine-theoronine kinase modulators (P70s6k, Atk1 and Atk2) for the treatment of immunological, inflammatory and proliferative diseases” (Exelixis, Inc., priority 2004, dated 2011)

Legend:
Type in all cases: biochemical
[1] = molecular target: T1, human p70S6 kinase (p70S6K, kinase domain residues 1-421, T412E mutation) (Homo sapiens, UniProt P23443, T412E); test: p70S6 kinase assay, Luciferase-Coupled Chemiluminescent Kinase assay (LCCA); settings: 5 μM ATP, 12 nM p70S6K; read-out: p70S6K inhibition IC50
T1 construct: human p70S6 kinase domainresidues 1-421, containing a T412E mutation; made in house
T1 sequence (P23443 1-421 T412E): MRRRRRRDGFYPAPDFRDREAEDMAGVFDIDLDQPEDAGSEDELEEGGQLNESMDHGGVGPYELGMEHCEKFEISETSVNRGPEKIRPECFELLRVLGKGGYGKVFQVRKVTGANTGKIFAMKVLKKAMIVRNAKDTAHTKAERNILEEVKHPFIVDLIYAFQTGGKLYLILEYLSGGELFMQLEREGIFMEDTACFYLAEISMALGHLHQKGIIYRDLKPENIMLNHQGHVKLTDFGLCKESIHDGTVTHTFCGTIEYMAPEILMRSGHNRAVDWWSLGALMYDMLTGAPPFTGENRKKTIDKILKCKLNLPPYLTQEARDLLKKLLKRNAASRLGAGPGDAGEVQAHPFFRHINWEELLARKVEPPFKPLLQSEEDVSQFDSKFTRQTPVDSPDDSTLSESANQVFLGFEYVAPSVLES
Summary of the method: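 Baculovirus-expressed kinase domain (12 nM) reacted 2 h at ambient temperature with 5 μM ATP and 5 μM RRRLSSLRA peptide. Buffer was Tris pH 7.5 with MgCl2, MnCl2, DTT and Triton X-100. Remaining ATP was read by luciferase-luciferin chemiluminescence. IC50 came from 10-point dose-response with a four-parameter Hill fit.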

[2] = molecular target: T2, human Akt1 kinase (kinase domain residues R144-A480, activated with PDK1) (Homo sapiens, UniProt P31749); test: Akt1 kinase assay, Luciferase-Coupled Chemiluminescent Kinase assay (LCCA); settings: 1 μM ATP, 1.3 nM Akt1; read-out: Akt-1 inhibition IC50
T2 construct: made in house
T2 sequence (P31749 144-480): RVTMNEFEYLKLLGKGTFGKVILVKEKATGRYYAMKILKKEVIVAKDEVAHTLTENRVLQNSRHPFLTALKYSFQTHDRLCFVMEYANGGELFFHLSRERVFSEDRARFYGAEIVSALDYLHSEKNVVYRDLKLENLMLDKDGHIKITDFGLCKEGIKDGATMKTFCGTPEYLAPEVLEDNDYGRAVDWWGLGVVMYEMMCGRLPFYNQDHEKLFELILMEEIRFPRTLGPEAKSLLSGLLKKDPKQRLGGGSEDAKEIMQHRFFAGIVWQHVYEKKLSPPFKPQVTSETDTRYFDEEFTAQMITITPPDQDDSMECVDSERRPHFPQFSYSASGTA
Summary of the method: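 Baculovirus-expressed PDK1-activated Akt1 kinase domain (R144-A480), 1.3 nM, with 5 μM crosstide and 1 μM ATP in Tris pH 7.5 with MgCl2/MnCl2, 3 h at ambient temperature. Remaining ATP read by luciferase-luciferin chemiluminescence; 10-point IC50 from four-parameter fit.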

[3] = molecular target: T3, human Akt2 kinase (kinase domain residues K146-R480) (Homo sapiens, UniProt P31751); test: Akt2 kinase assay, Luciferase-Coupled Chemiluminescent Kinase assay (LCCA); settings: 2 μM ATP, 10 nM Akt2; read-out: Akt-2 inhibition IC50
T3 construct: human Akt2 kinase domain residues K146-R480; made in house
T3 sequence (P31751 146-480): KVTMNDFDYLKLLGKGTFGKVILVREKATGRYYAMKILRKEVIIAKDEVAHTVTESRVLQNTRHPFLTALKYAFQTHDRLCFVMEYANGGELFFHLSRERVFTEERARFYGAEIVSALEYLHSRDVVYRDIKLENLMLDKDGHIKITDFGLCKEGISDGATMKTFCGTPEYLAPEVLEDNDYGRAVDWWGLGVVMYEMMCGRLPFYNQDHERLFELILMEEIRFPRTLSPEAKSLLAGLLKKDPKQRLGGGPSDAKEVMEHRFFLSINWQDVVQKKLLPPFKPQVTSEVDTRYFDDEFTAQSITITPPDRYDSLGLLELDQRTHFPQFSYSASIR
Experimental: Kinase activity and compound inhibition are investigated using one or more of the three assay formats described below. The ATP concentrations for each assay are selected to be close to the Michaelis-Menten constant (KM) for each individual kinase. Dose-response experiments are performed at 10 different inhibitor concentrations in a 384-well plate format. The data are fitted to four-parameter equation (2) below; where Y is the observed signal, X is the inhibitor concentration, Min is the background signal in the absence of enzyme (0% enzyme activity), Max is the signal in the absence of inhibitor (100% enzyme activity), IC50 is the inhibitor concentration at 50% enzyme inhibition and H represents the empirical Hill's slope to measure the cooperativity. Typically H is close to unity. Y=Min+(Max−Min)/(1+(X/IC50)^H) Equation (2) p70S6 Kinase Assay
Biochemical activity of Akt2 kinase was assessed using a Luciferase-Coupled Chemiluminescent Kinase assay (LCCA) format. Kinase activity was measured as the percent ATP remaining following the kinase reaction. Remaining ATP was detected by luciferase-luciferin-coupled chemiluminescence. Specifically, the reaction was initiated by mixing test compounds, 2 μM ATP, 5 μM crosstide peptide and 10 nM Akt2 (baculovirus expressed human Akt2 kinase domain residues K146-R480) in a 20 uL assay buffer (20 mM Tris-HCL pH 7.5, 10 mM MgCl2, 0.03% Triton X-100, 1 mM DTT, 3 mM MnCl2). The mixture is incubated at ambient temperature for 2 hours after which 20 μL luciferase-luciferin mix is added and the chemiluminescent signal read using a Wallac Victor2 reader. The luciferase-luciferin mix consists of 50 mM HEPES, pH 7.8, 8.5 μg/mL oxalic acid (pH 7.8), 5 (or 50) mM DTT, 0.4% Triton X-100, 0.25 mg/mL coenzyme A, 63 uM AMP, 28 μg/mL luciferin and 40,000 units/mL luciferase.

| Structure (SMILES) | IC50 [1] | IC50 [2] | IC50 [3] |
| --- | --- | --- | --- |
| Brc1n[nH]c2ncnc(N3CCN(Cc4ncc[nH]4)CC3)c12 [Entry 52, 3-bromo-4-[4-(1H-imidazol-2-ylmethyl)piperazin-1-yl]-1H-pyrazolo[3,4-d]pyrimidine] | 0.05 to 0.5 µM | > 2 µM | > 2 µM |
| Clc1c2ccccc2c(CN2CCN(c3ncnc4[nH]nc(Br)c34)CC2)c2ccccc12 [Entry 71, 3-bromo-4-{4-[(10-chloroanthracen-9-yl)methyl]piperazin-1-yl}-1H-pyrazolo[3,4-d]pyrimidine] | 0.5 to 2 µM | > 2 µM | > 2 µM |
| O=C(c1ccc2cc[nH]c2c1)N1CCN(c2ncnc3[nH]nc(Br)c23)CC1 [Entry 67, 3-bromo-4-[4-(1H-indol-6-ylcarbonyl)piperazin-1-yl]-1H-pyrazolo[3,4-d]pyrimidine] | 0.5 to 2 µM | > 2 µM | > 2 µM |
| CN(C)CCOC(c1ccc(Cl)cc1)C1CCN(c2ncnc3[nH]nc(Br)c23)CC1 (centres unmarked) [Entry 2, 2-{[[1-(3-bromo-1H-pyrazolo[3,4-d]pyrimidin-4-yl)piperidin-4-yl](4-chlorophenyl)methyl]oxy}-N,N-dimethylethanamine] | < 0.05 µM | < 0.05 µM | 0.05 to 0.5 µM |
| O=C(CN1CCN(c2ncnc3[nH]nc(Br)c23)CC1)N1CCOCC1 [Entry 75, 3-bromo-4-[4-(2-morpholin-4-yl-2-oxoethyl)piperazin-1-yl]-1H-pyrazolo[3,4-d]pyrimidine] | > 2 µM | > 2 µM | > 2 µM |
| Clc1ccc(-c2ccc(CN3CCN(c4ncnc5[nH]nc(Br)c45)CC3)o2)cc1 [Entry 64, 3-bromo-4-(4-{[5-(4-chlorophenyl)furan-2-yl]methyl}piperazin-1-yl)-1H-pyrazolo[3,4-d]pyrimidine] | 0.5 to 2 µM | > 2 µM | > 2 µM |
| FC(F)(F)c1ccc(CN2CCN(c3ncnc4[nH]nc(Br)c34)CC2)cc1 [Entry 11, 3-bromo-4-(4-{[4-(trifluoromethyl)phenyl]methyl}piperazin-1-yl)-1H-pyrazolo[3,4-d]pyrimidine] | < 0.05 µM | 0.5 to 2 µM | > 2 µM |
| CCN(CC)CCCN(c1ccc(Cl)cc1)C1CCN(c2ncnc3[nH]nc(Br)c23)CC1 [Entry 10, N-[1-(3-bromo-1H-pyrazolo[3,4-d]pyrimidin-4-yl)piperidin-4-yl]-N-(4-chlorophenyl)-N′,N′-diethylpropane-1,3-diamine] | < 0.05 µM | < 0.05 µM | – |
| CN(C)CCNC(=O)N(c1ccc(Br)c(F)c1)C1CCN(c2ncnc3[nH]nc(Br)c23)CC1 [Entry 87, N-(4-bromo-3-fluorophenyl)-N-[1-(3-bromo-1H-pyrazolo[3,4-d]pyrimidin-4-yl)piperidin-4-yl]-N′-[2-(dimethylamino)ethyl]urea] | < 0.05 µM | < 0.05 µM | – |
| OC(c1ccc2cc[nH]c2c1)N1CCN(c2ncnc3[nH]nc(Br)c23)CC1 (centres unmarked) [Entry 99, [4-(3-bromo-1H-pyrazolo[3,4-d]pyrimidin-4-yl)piperazin-1-yl](1H-indol-6-yl)methanol] | 0.05 to 0.5 µM | 0.5 to 2 µM | – |
| Clc1ccc(OC2CCN(c3ncnc4[nH]nc(Br)c34)CC2)cc1 [Entry 101, 3-bromo-4-{4-[(4-chlorophenyl)oxy]piperidin-1-yl}-1H-pyrazolo[3,4-d]pyrimidine] | 0.05 to 0.5 µM | 0.5 to 2 µM | – |
| Clc1ccc([C@H](OCCN2CCCCC2)C2CCN(c3ncnc4[nH]nc(Br)c34)CC2)cc1 [Entry 93, 3-bromo-4-(4-{(R)-(4-chlorophenyl)[(2-piperidin-1-ylethyl)oxy]methyl}piperidin-1-yl)-1H-pyrazolo[3,4-d]pyrimidine] | < 0.05 µM | < 0.05 µM | – |
| CN(C)CCNC(=O)NC(c1ccc(Cl)cc1)C1CCN(c2ncnc3[nH]nc(Br)c23)CC1 (centres unmarked) [Entry 13, N-[[1-(3-bromo-1H-pyrazolo[3,4-d]pyrimidin-4-yl)piperidin-4-yl](4-chlorophenyl)methyl]-N′-[2-(dimethylamino)ethyl]urea] | < 0.05 µM | < 0.05 µM | – |
| Clc1cc(CN2CCN(c3ncnc4[nH]nc(Br)c34)CC2)ccc1OCc1ccccc1 [Entry 80, 3-bromo-4-[4-({3-chloro-4-[(phenylmethyl)oxy]phenyl}methyl)piperazin-1-yl]-1H-pyrazolo[3,4-d]pyrimidine] | > 2 µM | > 2 µM | – |
| CCN(CC)CCS(=O)(=O)N(c1ccc(Cl)cc1)C1CCN(c2ncnc3[nH]nc(Br)c23)CC1 [Entry 29, N-[1-(3-bromo-1H-pyrazolo[3,4-d]pyrimidin-4-yl)piperidin-4-yl]-N-(4-chlorophenyl)-2-(diethylamino)ethanesulfonamide] | < 0.05 µM | < 0.05 µM | – |
| CCN(CC)CCO[C@@H](c1ccc(Cl)cc1)C1CCN(c2ncnc3[nH]nc(Br)c23)CC1 [Entry 102, 2-{[(R)-[1-(3-bromo-1H-pyrazolo[3,4-d]pyrimidin-4-yl)piperidin-4-yl](4-chlorophenyl)methyl]oxy}-N,N-diethylethanamine] | < 0.05 µM | < 0.05 µM | – |
| Fc1cc(CN2CCN(c3ncnc4[nH]nc(Br)c34)CC2)ccc1Cl [Entry 16, 3-bromo-4-{4-[(4-chloro-3-fluorophenyl)methyl]piperazin-1-yl}-1H-pyrazolo[3,4-d]pyrimidine] | < 0.05 µM | 0.05 to 0.5 µM | – |
| O=C(NCCCN1CCOCC1)c1ccc(CN2CCN(c3ncnc4[nH]nc(Br)c34)CC2)cc1 [Entry 81, 4-{[4-(3-bromo-1H-pyrazolo[3,4-d]pyrimidin-4-yl)piperazin-1-yl]methyl}-N-(3-morpholin-4-ylpropyl)benzamide] | > 2 µM | > 2 µM | – |
| OC(c1ccc(F)cc1)C1CCN(c2ncnc3[nH]nc(Br)c23)CC1 (centres unmarked) [Entry 22, [1-(3-bromo-1H-pyrazolo[3,4-d]pyrimidin-4-yl)piperidin-4-yl](4-fluorophenyl)methanol] | < 0.05 µM | 0.05 to 0.5 µM | – |
| CCN(CC)CCCNC(=O)C1(Cc2ccc(Cl)cc2)CCN(c2ncnc3[nH]nc(Br)c23)CC1 [Entry 44, 1-(3-bromo-1H-pyrazolo[3,4-d]pyrimidin-4-yl)-4-[(4-chlorophenyl)methyl]-N-[3-(diethylamino)propyl]piperidine-4-carboxamide] | < 0.05 µM | 0.05 to 0.5 µM | – |
| CCc1n[nH]c2ncnc(N3CCC([C@@H](OCCN(C)C)c4ccc(Cl)cc4)CC3)c12 [Entry 88, 2-({(R)-(4-chlorophenyl)[1-(3-ethyl-1H-pyrazolo[3,4-d]pyrimidin-4-yl)piperidin-4-yl]methyl}oxy)-N,N-dimethylethanamine] | < 0.05 µM | < 0.05 µM | – |
| Fc1cc([C@H](OCCN2CCCC2)C2CCN(c3ncnc4[nH]nc(Br)c34)CC2)ccc1Cl [Entry 100, 3-bromo-4-(4-{(R)-(4-chloro-3-fluorophenyl)[(2-pyrrolidin-1-ylethyl)oxy]methyl}piperidin-1-yl)-1H-pyrazolo[3,4-d]pyrimidine] | < 0.05 µM | < 0.05 µM | – |
| CN(C)CCOC(=O)N(c1ccc(Cl)cc1)C1CCN(c2ncnc3[nH]nc(Br)c23)CC1 [Entry 15, 2-(dimethylamino)ethyl [1-(3-bromo-1H-pyrazolo[3,4-d]pyrimidin-4-yl)piperidin-4-yl](4-chlorophenyl)carbamate] | < 0.05 µM | < 0.05 µM | – |
